From patent US20080207614A1, “QUINAZOLINE DERIVATIVES FOR THE TREATMENT AND PREVENTION OF DIABETES AND OBESITY” (SK CHEMICALS CO., LTD., priority 2004, published 2008)

What was measured:
C2C12 muscle cells = experiment: Analysis of glucose absorption (2-deoxyglucose) in differentiated C2C12 muscle cells; format: cell-based; settings: test materials 10 μM, times relative to control group
Procedure, shortened: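 Uptake of 0.2 μCi 2-deoxyglucose over 20 min, counted radiometrically in lysed cells. Before tracer, compounds (10 μM) were applied for 30 min to C2C12 cells differentiated 6 days in 1% serum and equilibrated 3 h in 5 mM glucose KRB.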

AMPK = experiment: Measurement of AMPK activity by Western blot in C2C12 cells; format: cell-based; set-up: key to AMPK activity (degree of phosphorylation of serine-79 and threonine-172): fold increase in threonine-172 phosphorylation; AMPK activity (degree of phosphorylation of serine-79): unit not given here; settings: 10 μM for 50 minutes; for AMPK activity (class: degree of phosphorylation of threonine-172): strong/mild/weak; for AMPK activity (degree of phosphorylation of serine-79): footnote a: Western blot of serine-79 phosphorylation; for AMPK activity (degree of phosphorylation of serine-79 and threonine-172): no superscript: Western blot of serine-79 and threonine-172 phosphorylation
Procedure, shortened: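 Western blot readout of AMPK Thr-172 and ACC Ser-79 phosphorylation, normalised against ERK, served as the activity measure. Cells were C2C12 after differentiation, treated 50 minutes with 10 μM test material. Grading by Thr-172 increase: ≥3-fold strong, 1-3-fold mild, <1-fold weak.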

CCSc1nc(NCc2cccc(OC)c2)c2ccccc2n1 [Compound 24, (2-Ethylsulfanylquinazolino-4-yl)-(3-methoxybenzyl)-amine]
Glucose absorption (C2C12 muscle cells): 2.8
AMPK activity (class: degree of phosphorylation of threonine-172) (AMPK): strong (“strong” means that the degree of phosphorylation of threonine-172 increased by 3 times or more)

CC(C)Nc1nc(C(Cl)(Cl)Cl)nc2ccccc12 [Compound 2, Isopropyl-(2-trichloromethylquinazolino-4-yl)-amine]
Glucose absorption (C2C12 muscle cells): 1.3
AMPK activity (degree of phosphorylation of serine-79) (AMPK): 4.2^a

c1ccc(-c2nc(NCc3cccc4ccccc34)c3ccccc3n2)nc1 [Compound 229, Naphthaleno-1-ylmethyl-(2-pyridino-2-ylquinazolino-4-yl)-amine]
Glucose absorption (C2C12 muscle cells): 1.9
AMPK activity (degree of phosphorylation of serine-79 and threonine-172) (AMPK): 4.7
AMPK activity (class: degree of phosphorylation of threonine-172) (AMPK): strong (“strong” means that the degree of phosphorylation of threonine-172 increased by 3 times or more)

COc1cccc(CNc2nc(-c3cccs3)nc3ccccc23)c1OC [Compound 353, (2,3-Dimethoxybenzyl)-(2-thiopenyl-2-ylquinazolino-4-yl)-amine]
Glucose absorption (C2C12 muscle cells): 1.2
AMPK activity (degree of phosphorylation of serine-79 and threonine-172) (AMPK): 0.8

c1ccc(-c2nc(NCCN3CCCCC3)c3ccccc3n2)cc1 [Compound 101, (2-Phenylquinazolino-4-yl)-(2-piperidino-1-ylethyl)-amine]
Glucose absorption (C2C12 muscle cells): 1.5
AMPK activity (class: degree of phosphorylation of threonine-172) (AMPK): weak (“weak” means that the degree of phosphorylation of threonine-172 increased by less than 1 time)

COc1ccc(CNc2nc(C(C)c3ccccc3)nc3ccccc23)cc1OC (stereo not drawn) [Compound 377, (3,4-Dimethoxybenzyl)-[2-(1-phenylethyl)-quinazolino-4-yl]-amine]
Glucose absorption (C2C12 muscle cells): 1.1
AMPK activity (degree of phosphorylation of serine-79 and threonine-172) (AMPK): 2.3

CCOc1cc2ncnc(NCc3cccc4ccccc34)c2cc1OCC [Compound 14, (6,7-Diethoxyquinazolino-4-yl)-naphthaleno-1-ylmethylamine]
Glucose absorption (C2C12 muscle cells): 1.2
AMPK activity (degree of phosphorylation of serine-79) (AMPK): 3.6^a

CCSc1nc(NCCc2cccc(C(F)(F)F)c2)c2ccccc2n1 [Compound 12, (2-Ethylsulfanylquinazolino-4-yl)-[2-(3-trifluoromethyl-phenyl)ethyl]-amine]
Glucose absorption (C2C12 muscle cells): 0.8
AMPK activity (degree of phosphorylation of serine-79) (AMPK): 4.0^a

c1ccc2c(NCc3ccc4c(c3)OCO4)ncnc2c1 [Compound 407, Benzo[1,3]dioxol-5-ylmethylquinazolino-4-ylamine]
Glucose absorption (C2C12 muscle cells): 1.5
AMPK activity (degree of phosphorylation of serine-79 and threonine-172) (AMPK): 1.3

COc1ccc(CNc2nc(-c3ccccc3)nc3ccccc23)cc1OC [Compound 118, (3,4-Dimethoxybenzyl)-(2-phenylquinazolino-4-yl)-amine]
Glucose absorption (C2C12 muscle cells): 2.1
AMPK activity (degree of phosphorylation of serine-79 and threonine-172) (AMPK): 2.0
AMPK activity (class: degree of phosphorylation of threonine-172) (AMPK): strong (“strong” means that the degree of phosphorylation of threonine-172 increased by 3 times or more)

COc1ccccc1CNc1nc(C(OC)c2ccccc2)nc2ccccc12 (stereo not drawn) [Compound 360, (2-Methoxybenzyl)-[2-(methoxyphenylmethyl)-quinazolino-4-yl]-amine]
Glucose absorption (C2C12 muscle cells): 1.4
AMPK activity (degree of phosphorylation of serine-79 and threonine-172) (AMPK): 2.2

Clc1ccc(CCNc2nc(-c3ccccc3)nc3ccccc23)cc1Cl [Compound 149, [2-(3,4-Dichlorophenyl)-ethyl]-(2-phenylquinazolino-4-yl)-amine]
Glucose absorption (C2C12 muscle cells): 2.6
AMPK activity (degree of phosphorylation of serine-79 and threonine-172) (AMPK): 2.5
AMPK activity (class: degree of phosphorylation of threonine-172) (AMPK): strong (“strong” means that the degree of phosphorylation of threonine-172 increased by 3 times or more)

COc1cccc(CNc2nc(C(C)c3ccccc3)nc3ccccc23)c1OC (stereo not drawn) [Compound 375, (2,3-Dimethoxybenzyl)-[2-(1-phenylethyl)-quinazolino-4-yl]-amine]
Glucose absorption (C2C12 muscle cells): 1.1
AMPK activity (degree of phosphorylation of serine-79 and threonine-172) (AMPK): 5.2

FC(F)(F)c1cccc(CNc2nc(-c3ccccn3)nc3ccccc23)c1 [Compound 226, (2-Pyridino-2-ylquinazolino-4-yl)-(3-trifluoromethylbenzyl)-amine]
Glucose absorption (C2C12 muscle cells): 1.9
AMPK activity (degree of phosphorylation of serine-79 and threonine-172) (AMPK): 4.3
AMPK activity (class: degree of phosphorylation of threonine-172) (AMPK): strong (“strong” means that the degree of phosphorylation of threonine-172 increased by 3 times or more)

COc1ccc(OC)c(CNc2nc(-c3ccccc3)nc3ccccc23)c1 [Compound 147, (2,5-Dimethoxybenzyl)-(2-phenylquinazolino-4-yl)-amine]
Glucose absorption (C2C12 muscle cells): 1.3
AMPK activity (degree of phosphorylation of serine-79 and threonine-172) (AMPK): 1.8
AMPK activity (class: degree of phosphorylation of threonine-172) (AMPK): strong (“strong” means that the degree of phosphorylation of threonine-172 increased by 3 times or more)

COc1ccc(CNc2nc(-c3cccs3)nc3ccccc23)cc1OC [Compound 355, (3,4-Dimethoxybenzyl)-(2-thiopenyl-2-ylquinazolino-4-yl)-amine]
Glucose absorption (C2C12 muscle cells): 1.2
AMPK activity (degree of phosphorylation of serine-79 and threonine-172) (AMPK): 1.1

COc1ccc(CNc2nc(C(OC)c3ccccc3)nc3ccccc23)cc1 (stereo not drawn) [Compound 362, (4-Methoxybenzyl)-[2-(methoxyphenylmethyl)-quinazolino-4-yl]-amine]
Glucose absorption (C2C12 muscle cells): 1.2
AMPK activity (degree of phosphorylation of serine-79 and threonine-172) (AMPK): 2.6

COc1ccc(CNc2nc(C3CC3)nc3ccccc23)cc1 [Compound 384, (2-Cyclopropylquinazolino-4-yl)-(4-methoxybenzyl)-amine]
Glucose absorption (C2C12 muscle cells): 1.2
AMPK activity (degree of phosphorylation of serine-79 and threonine-172) (AMPK): 2.0

CCSc1nc(NCCc2ccccc2)c2ccccc2n1 [Compound 29, (2-Ethylsulfanylquinazolino-4-yl)-phenethylamine]
Glucose absorption (C2C12 muscle cells): 1.6
AMPK activity (class: degree of phosphorylation of threonine-172) (AMPK): mild (“mild” means that the degree of phosphorylation of threonine-172 increased by 1 to 3 times)

COc1ccc(CNc2nc(N3CCCCC3)nc3ccccc23)c(OC)c1 [Compound 292, (2,4-Dimethoxybenzyl)-(2-piperidino-1-ylquinazolino-4-yl)-amine]
Glucose absorption (C2C12 muscle cells): 0.7
AMPK activity (degree of phosphorylation of serine-79 and threonine-172) (AMPK): 1.2

COc1ccc(CNc2nc(C(C)c3ccccc3)nc3ccccc23)cc1 (stereo not drawn) [Compound 373, (4-Methoxybenzyl)-[2-(1-phenylethyl)-quinazolino-4-yl]-amine]
Glucose absorption (C2C12 muscle cells): 1.1
AMPK activity (degree of phosphorylation of serine-79 and threonine-172) (AMPK): 2.1

COc1ccc(CNc2nc(C(C)c3ccccc3)nc3ccccc23)c(OC)c1 (stereo not drawn) [Compound 379, (2,4-Dimethoxybenzyl)-[2-(1-phenylethyl)-quinazolino-4-yl]-amine]
Glucose absorption (C2C12 muscle cells): 1.1
AMPK activity (degree of phosphorylation of serine-79 and threonine-172) (AMPK): 6.1

COc1ccc(CNc2nc(N3CCN(C)CC3)nc3ccccc23)cc1OC [Compound 302, (3,4-Dimethoxybenzyl)-[2-(4-methylpiperazino-1-yl)-quinazolino-4-yl]-amine]
Glucose absorption (C2C12 muscle cells): 0.7
AMPK activity (degree of phosphorylation of serine-79 and threonine-172) (AMPK): 1.2

COC(c1ccccc1)c1nc(NCc2ccc3c(c2)OCO3)c2ccccc2n1 (stereo not drawn) [Compound 363, Benzo[1,3]dioxol-5-ylmethyl-[2-(methoxyphenylmethyl)-quinazolino-4-yl]-amine]
Glucose absorption (C2C12 muscle cells): 1.3
AMPK activity (degree of phosphorylation of serine-79 and threonine-172) (AMPK): 1.4

CCC(CC)Nc1nc(-c2ccccc2)nc2ccccc12 [Compound 121, (1-Ethylpropyl)-(2-phenylquinazolino-4-yl)-amine]
Glucose absorption (C2C12 muscle cells): 2.4
AMPK activity (degree of phosphorylation of serine-79 and threonine-172) (AMPK): 2.2
AMPK activity (class: degree of phosphorylation of threonine-172) (AMPK): strong (“strong” means that the degree of phosphorylation of threonine-172 increased by 3 times or more)

Clc1cccc(CNc2nc(-c3ccccc3)nc3ccccc23)c1Cl [Compound 115, (2,3-Dichlorobenzyl)-(2-phenylquinazolino-4-yl)-amine]
Glucose absorption (C2C12 muscle cells): 2.3
AMPK activity (degree of phosphorylation of serine-79 and threonine-172) (AMPK): 2.3
AMPK activity (class: degree of phosphorylation of threonine-172) (AMPK): strong (“strong” means that the degree of phosphorylation of threonine-172 increased by 3 times or more)

COc1ccc(CNc2nc(C(C)C)nc3ccccc23)cc1 [Compound 177, (2-Isopropylquinazolino-4-yl)-(4-methoxybenzyl)-amine]
Glucose absorption (C2C12 muscle cells): 2.8
AMPK activity (degree of phosphorylation of serine-79 and threonine-172) (AMPK): 5.5
AMPK activity (class: degree of phosphorylation of threonine-172) (AMPK): strong (“strong” means that the degree of phosphorylation of threonine-172 increased by 3 times or more)

COc1ccc(CNc2nc(N3CCCC3)nc3ccccc23)cc1 [Compound 283, (4-Methoxybenzyl)-(2-pyrrolidino-1-ylquinazolino-4-yl)-amine]
Glucose absorption (C2C12 muscle cells): 1.0
AMPK activity (degree of phosphorylation of serine-79 and threonine-172) (AMPK): 1.1

CCSc1nc(NCCCCc2ccccc2)c2ccccc2n1 [Compound 30, (2-Ethylsulfanylquinazolino-4-yl)-(4-phenylbutyl)-amine]
Glucose absorption (C2C12 muscle cells): 1.8
AMPK activity (class: degree of phosphorylation of threonine-172) (AMPK): mild (“mild” means that the degree of phosphorylation of threonine-172 increased by 1 to 3 times)

CC(C)c1nc(NCCCCc2ccccc2)c2ccccc2n1 [Compound 180, (2-Isopropylquinazolino-4-yl)-(4-phenylbutyl)-amine]
Glucose absorption (C2C12 muscle cells): 4.1
AMPK activity (degree of phosphorylation of serine-79 and threonine-172) (AMPK): 3.9
AMPK activity (class: degree of phosphorylation of threonine-172) (AMPK): strong (“strong” means that the degree of phosphorylation of threonine-172 increased by 3 times or more)
